Results from PMC12775124, “CUL4A-DDB1-DCAF10 is an N-recognin for N-terminally acetylated Src kinases” (Nature Communications, 2026).

Legend:
[1] = tested on: DCAF10; assay: Peptide pull-down with quantitative MS, HeLa lysate, DCAF10; assay type: binding, human (HeLa); conditions: for DCAF10 binding (in words): Nt-Ac vs Nt-free peptides; for DCAF10 binding of Nt-mutant peptides (in words): n = 3 replicates
Protocol: Beads presenting 10-residue synthetic Nt-peptides of proteins of interest in their free (Nt-free) or modified (e.g., Nt-acetylated) versions were incubated with lysates from HeLa cells, followed by MS-based quantification of retained binders (Fig. 1a).
Biotinylated 10-mer Nt-peptides (Nt-free, Nt-acetylated, and, where indicated, Nt-myristoylated; sequences in Supplementary Table 1) were synthesized with a C-terminal Lys3 spacer and biotin, immobilized on magnetic streptavidin beads, and incubated with HeLa or mouse liver lysates. After standardized washes, bound proteins were on-bead reduced/alkylated, digested with LysC/trypsin, desalted, and analysed by LC-MS in DIA mode (Orbitrap Exploris 480) as described previously[24]. Variants included endogenous Nt-sequences, swap and mutant (Ala-Ala-Ala or Nt-amino acids) peptides, and pairwise comparisons of conditions of interest.
All MS experiments were performed as independent biological triplicates. Relative protein quantification was carried out using the label-free algorithm integrated in DIA-NN[53], and statistical testing was performed in Perseus using a two-sided Student’s t test with permutation-based multiple-testing-adjusted p-values[53],[54], as specified in the figure legends. […] Volcano blots were visualized with RStudio (version 2023.06.0). […] Cell experiments were performed as biological replicates, and binding assays as independent assays. […] Data are presented as mean ± s.d. Fold changes are reported as the ratio of the normalized value for the condition of interest to the normalized control value, with mean ± s.d. computed across biological replicates.

[2] = tested on: GST-DCAF10; assay: Streptavidin pull-down of GST-DCAF10 with biotinylated Nt-peptides; assay type: binding, human; conditions: 0.5 µM GST-DCAF10, 5 µM peptide, 1 h RT; WB; listed as Nt-acetylated Fyn
Protocol: To confirm direct interactions between peptides and DCAF10, we performed pull-down assays using bead-bound Nt-peptide variants incubated with purified full-length GST-DCAF10 or GST as a negative control (Fig. 2m–p and Supplementary Fig. 4a).
230 of 1:100), and desalted/concentrated on C18 reversed phase stage tips as previously
MS measurements settings are stated in MS measurements and raw file
BL21(DE3) cells (Thermo Fisher Scientific,
240 agar) plate containing 100 μg/mL ampicillin and 34 μg/mL chloramphenicol, then
Terrific broth (TB) medium (24 g/L yeast extract,
243 20 g/L tryptone, glycerol 4 mL/L, 100 mL/L phosphate buffer containing 0.17 M KH2PO4
244 and 0.72 M K2HPO4) was used to prepare a 1:100 dilution of the starter culture, and OD600
At OD600 = 1, protein induction was initiated by adding 1 mM
247 day, pellets were homogenized and lysed in glycerol lysis buffer (20 mM Tris-HCl pH
Lysis was performed on ice for 30 min, followed by
250 sonication (7 × 20 sec pulses with 20 sec breaks on ice) using a Bandelin sonoplus
Lysates were centrifuged at 4°C for 1 h
253 medium culture was lysed in 20 mL of supernatant (collected in 20 × 1 mL tubes). GST
255 agarose bead; Thermo Fisher Scientific, Waltham, MA, USA). For each 1 mL of
100 μL of GST magnetic beads
257 were washed twice with 500 μL of wash buffer (125 mM Tris-HCl pH 7.4, 150 mM NaCl,
The lysis supernatant was diluted 1:1 with
259 wash buffer, and incubated with the beads on an end-over-end rotator for 1 h at 25°C.
260 After incubation, the supernatant was removed, and the beads were washed twice with
Protein elution was then performed by incubating
263 pH 7.4, 250 mM NaCl, 0.3% Triton X-100) for 30 min at 25°C on an end-over-end rotator.
265 under the same conditions. Elution fractions were pooled and concentrated by
266 centrifugation (4°C, 25 min, 4500 rpm) using a 30 kDa cut-off concentrator (Merck
267 Millipore, #UFC803008, Darmstadt, Germany). Purified proteins were analyzed by
268 colloidal Coomassie stain, WB and MS.
270 Streptavidin pull-downs with GST-DCAF10 and biotinylated peptides
271 Streptavidin magnetic beads (DynabeadsTM MyOneTM Streptavidin T1; Thermo Fisher
272 Scientific, Waltham, MA, USA) were washed twice with 500 μL of wash buffer (125 mM
273 Tris-HCl pH 7.4, 150 mM NaCl, 0.1% Triton X-100). An excess of peptides was added
274 (to ensure full occupancy of the beads) and incubated for 30 min at RT. After peptide
275 binding, beads were again washed three times with 500 μL of wash buffer. The pull-down
276 was then performed in a 100 μL reaction volume with final concentrations of 0.5 µM
277 GST-DCAF10 and 5 µM peptide. GST-DCAF10 or GST alone (as a control) was added
278 to the peptide-streptavidin beads and incubated on a rotator for 1 h at RT. After incubation,
279 the beads were washed three times with 500 μL of wash buffer and resuspended in 4x
280 Laemmli buffer. 1/5 of the input (GST-DCAF10 and GST) and 9/10 of the sample were
281 loaded on a 10% SDS gel and blotted with anti-GST and anti-DCAF10 antibodies, while
282 1/10 was loaded on a 15% SDS gel and blotted with anti-streptavidin antibody to assess
283 equal peptide loading.
285 Streptavidin Sepharose High Performance, GE Healthcare, Chicago, IL, USA) were used.
286 After washing with a high salt wash buffer without detergents (125 mM Tris-HCl pH 7.4,
287 400 mM NaCl), an excess of peptides was added and incubated for 30 min at RT. For each
288 reaction, 10 µL of slurry beads were used. After peptide-binding, beads were again
289 washed once with a high salt wash buffer without detergents and twice with binding buffer
290 without detergents (125 mM Tris-HCl pH 7.4, 150 mM NaCl). The pull-downs were
291 performed in a 100 μL reaction volume in binding buffer without detergents with a final
292 concentration of 0.5 µM GST-DCAF10 and incubated rotating for 1 h at RT. After
293 incubation, the beads were washed five times with 500 μL of high salt wash buffer without […]

[3] = target: T1, human NatA (Homo sapiens, UniProt P41227+Q9BXJ9); assay: In vitro Nt-acetylation assay (NatA, CPM fluorescence); assay type: biochemical; conditions: 20 nM NatA, 80 µM Ac-CoA, pH 8.0, RT, 60 min; CPM fluorescence 390/479 nm; mean ± s.d., n = 4; read-out: Km
T1 construct: Human NatA (hNatA) full-length (FL) was cloned; made in house; host or cells: Tnao38 insect cells (baculovirus, pFL vector)
T1 sequence (P41227 1-235): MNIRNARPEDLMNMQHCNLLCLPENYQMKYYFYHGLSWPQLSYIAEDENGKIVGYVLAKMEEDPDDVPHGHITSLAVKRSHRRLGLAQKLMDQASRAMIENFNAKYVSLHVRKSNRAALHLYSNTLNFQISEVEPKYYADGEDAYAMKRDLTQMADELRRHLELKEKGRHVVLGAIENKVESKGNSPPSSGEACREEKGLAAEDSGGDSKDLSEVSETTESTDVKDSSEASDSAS
T1 sequence (Q9BXJ9 1-866 partner): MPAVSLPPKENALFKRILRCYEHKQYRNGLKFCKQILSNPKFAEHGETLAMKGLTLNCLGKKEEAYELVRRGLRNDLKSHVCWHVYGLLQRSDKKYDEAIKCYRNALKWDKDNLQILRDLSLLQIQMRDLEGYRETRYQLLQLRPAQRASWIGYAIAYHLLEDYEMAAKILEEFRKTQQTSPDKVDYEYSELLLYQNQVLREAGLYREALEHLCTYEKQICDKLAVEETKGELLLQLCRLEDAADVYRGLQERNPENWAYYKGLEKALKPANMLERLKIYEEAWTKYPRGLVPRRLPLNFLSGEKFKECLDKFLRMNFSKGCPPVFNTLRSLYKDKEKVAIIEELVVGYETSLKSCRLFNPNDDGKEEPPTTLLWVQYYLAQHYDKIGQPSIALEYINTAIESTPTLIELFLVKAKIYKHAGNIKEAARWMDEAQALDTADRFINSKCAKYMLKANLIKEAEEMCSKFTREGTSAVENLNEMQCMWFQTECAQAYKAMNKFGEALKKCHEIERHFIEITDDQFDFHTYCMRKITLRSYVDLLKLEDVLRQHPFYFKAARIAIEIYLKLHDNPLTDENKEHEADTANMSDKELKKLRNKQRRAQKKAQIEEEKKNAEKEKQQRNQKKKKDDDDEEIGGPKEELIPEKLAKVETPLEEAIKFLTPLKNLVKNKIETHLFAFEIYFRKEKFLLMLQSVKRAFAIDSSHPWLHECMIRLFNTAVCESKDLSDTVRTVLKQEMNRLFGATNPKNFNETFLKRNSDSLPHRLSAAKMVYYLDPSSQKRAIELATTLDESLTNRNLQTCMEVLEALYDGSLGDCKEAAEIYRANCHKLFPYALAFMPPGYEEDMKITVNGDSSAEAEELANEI
Protocol: Gly-starting proteins can be substrates of the Nt-acetyltransferase NatA[3],[21]. Having established direct DCAF10 binding to Ac-Gly N-termini, we next asked whether SFK N-termini are bona fide NatA substrates. We developed an in vitro Nt-acetylation assay comprising purified NatA, acetyl-CoA (Ac-CoA), and the peptide of interest (Fig. 3a, b)[33]. Acetyl-group transfer was assessed using CPM [7-(diethylamino)−3-(4′-maleimidophenyl)−4-methylcoumarin], which reacts specifically with free thiol groups to produce a highly fluorescent product (excitation: 390 nm; emission: 479 nm), allowing detection of CoA production after acetyl-group transfer to the peptide (Supplementary Fig. 4e). We optimized the conditions to determine Michaelis–Menten kinetics for NatA-mediated Nt-acetylation with a target peptide ([…]) previously used for NatA assays and co-crystallization (Supplementary Fig. 4f)[34]. […] Likely, this was due to a Km even higher than that of Src, and implying that the peptide concentrations in the assay might have been insufficient for the reaction to proceed with an appreciable rate. […] Negative controls (COX17 and Ac-Lyn) produced low signals. […] Given the direct association of NatA with SFK N-termini at the ribosomal exit tunnel, however, we surmise that Nt-acetylation of SFKs in cells may proceed despite these unfavorable kinetic parameters.
The assay was performed essentially as described previously. Briefly, peptide substrates (Supplementary Table 1) were incubated with purified human NatA and acetyl-CoA; acetylation was quantified by CPM fluorescence (CoA detection), and Michaelis–Menten parameters were derived from 8-point 1:1 dilution series within the linear range (n = 4 independent enzymatic assays). Full buffer compositions, reagent concentrations, plate format, instrument settings, controls, and fitting procedures are provided in the Supplementary Methods and Tables. […]
301 Cloning, expression, and purification of human NatA
302 Human NatA (hNatA) full-length (FL) was cloned in a pFL vector expressing both
303 genes, NAA15 with a 6× C-term histidine tag (NAA15-6xHIS) and NAA102. The
304 expression was carried out in insect cells (Tnao38) for 72 h infected 1:20 with
305 baculovirus. Washed cell pellets were lysed by sonication in a lysis buffer containing 200
306 mM NaCl, 50 mM HEPES pH 8.0, 20 mM Imidazole, and 2 mM TCEP. The protein
307 purification was performed as a three-step purification, starting with an affinity nickel
308 column, followed by an ion-exchange column with a gradient of 50–300 mM NaCl, and
309 finished with size exclusion chromatography (SEC) using an S200 10/300 column. The
310 main peaks were collected, and the protein was concentrated in the SEC buffer (150 mM
311 NaCl, 50 mM HEPES pH 8.0, 1 mM EDTA). The purified hNatA was flash-frozen in
312 liquid nitrogen and stored at -80°C.
314 In vitro Nt-acetylation assay
315 The method has been described in detail previously2. Briefly, different peptides
316 (Supplementary Table 1) and concentrations (an eight-step, 1:1 dilution series for
317 Michaelis-Menten curves) as indicated were incubated with 20 nM hNatA and 80 µM Ac-
318 CoA in reaction buffer (50 mM HEPES pH 8.0, 0.5 mM EDTA, 0.005% CHAPS) for 60
319 (Src) or 120 min (Lyn), at RT in a 384-well microplate (Corning 4514) (n = 4).
320 Afterwards, the enzymatic reaction was stopped by adding 1:1 DMSO with 10 µM (final
321 concentration 5 µM) of the thiol reactive CPM (7-Diethylamino-3-
322 (4'Maleimidylphenyl)4-Methylcoumarin). After 1 h at RT, the readout was performed
323 with a Tecan Spark® Multimode Microplate Reader (excitation 390 nm, emission 479
324 nm). Background values at 0 µM peptide were subtracted, and control reactions omitting
325 NatA or Ac-CoA were performed. Dilution series of CoA incubated with 5 µM CPM were
326 used to generate a linear equation (y = 10.99*x + 81.06) to calculate acetylation velocities
327 for NatA-mediated peptide acetylation. […]

GCVQCKDKEAKK [Ac-Fyn, Nt-peptide of Fyn, Nt-acetylated]
DCAF10 binding, Nt-Ac vs Nt-Myr (in words) ([1]; HeLa lysate): DCAF10 selectively recognizes the acetylated form | DCAF10 binding (in words) ([1]; HeLa lysate): bound to DCAF10 | Binding to GST-DCAF10 (in words) [2]: bound robustly to GST-DCAF10

ACIKSKGKDSKK [Ac-Lyn^G2A, Ac-Ala mutant Nt-peptide of Lyn]
DCAF10 interaction, fold lower relative to Ac-Gly peptide ([1]; Ac-Ala (Ac-Lyn^G2A) vs Ac-Gly (Ac-Lyn^WT), HeLa lysate): 15 fold | DCAF10 binding of Nt-mutant peptides (in words) [1]: only identified in 2 of 3 replicates

PCIKSKGKDSKK [Lyn^G2P, Nt-free Pro mutant Nt-peptide of Lyn]
DCAF10 binding of Nt-mutant peptides (in words) [1]: failed to bind DCAF10 in all replicates

NatA target peptide: target peptide previously used for NatA assays and co-crystallization (SASEAGVRWG) [reference compound]
Km [3]: 8.4 ± 1.7 µM

GCITDDGKDSKK [Ac-Lyn^swap, Lyn peptide carrying Thr5-Asp6-Asp7 of THOC7]
log₂ difference Ac-Lyn^swap vs Ac-THOC7^swap, DCAF10 ([1]; HeLa lysate, n = 3): −1.23 | DCAF10 binding of swap peptide vs its WT (in words) ([1]; direct comparisons Ac-Lyn vs Ac-Lyn^swap and Ac-THOC7 vs Ac-THOC7^swap, HeLa lysate): significantly reduced

GCIKSKENKSKK [Ac-Yes, Nt-peptide of Yes, Nt-acetylated]
DCAF10 binding (in words) ([1]; HeLa lysate): bound to DCAF10
